Assay: xn = mol fraction of the nth substance listed
Details: for surface tension liquid-gas: Wilhelmy plate method; for mass density: 101 kPa, Liquid, Vibrating tube method

CO [methanol] + CCCCn1cc[n+](C)c1.C[C@H](O)C(=O)[O-]
x2 = 0
Details | mass density [kg/m3] | surface tension liquid-gas [mN/m]
298.15 K | 786.4 | 22.22
308.15 K | 776.9 | 21.46
318.15 K | 767.2 | 20.46

CCCCn1cc[n+](C)c1.C[C@H](O)C(=O)[O-] [1-butyl-3-methylimidazolium L-lactate] + CO
Details | mass density [kg/m3] | surface tension liquid-gas [mN/m]
298.15 K, x1 = 0.0121 | – | 23.38
298.15 K, x1 = 0.0353 | – | 24.72
298.15 K, x1 = 0.0496 | – | 25.63
298.15 K, x1 = 0.0699 | – | 26.72
298.15 K, x1 = 0.0901 | – | 28.06
298.15 K, x1 = 0.0998 | 960.5 | –
298.15 K, x1 = 0.1051 | – | 28.6
298.15 K, x1 = 0.1968 | 1022.4 | –
298.15 K, x1 = 0.1995 | – | 31.01
298.15 K, x1 = 0.3 | 1063.1 | –
298.15 K, x1 = 0.3011 | – | 33.55
298.15 K, x1 = 0.3999 | 1075.9 | –
298.15 K, x1 = 0.4038 | – | 35.7
298.15 K, x1 = 0.5 | 1082.9 | –
298.15 K, x1 = 0.5029 | – | 36.97
298.15 K, x1 = 0.5996 | 1088 | –
298.15 K, x1 = 0.614 | – | 38.06
298.15 K, x1 = 0.7001 | 1090.5 | –
298.15 K, x1 = 0.7037 | – | 38.57
298.15 K, x1 = 0.8002 | 1091.5 | –
298.15 K, x1 = 0.8056 | – | 39.25
298.15 K, x1 = 0.8988 | 1097.8 | –
298.15 K, x1 = 0.9152 | – | 40.89
298.15 K, x1 = 1 | 1111.2 | 42.92
308.15 K, x1 = 0.0115 | – | 22.56
308.15 K, x1 = 0.0346 | – | 24.12
308.15 K, x1 = 0.0544 | – | 25.1
308.15 K, x1 = 0.0702 | – | 26.05
308.15 K, x1 = 0.091 | – | 27.26
308.15 K, x1 = 0.0998 | 956.6 | –
308.15 K, x1 = 0.1058 | – | 28.32
308.15 K, x1 = 0.1968 | 1019.4 | –
308.15 K, x1 = 0.2002 | – | 30.7
308.15 K, x1 = 0.3 | 1057.4 | –
308.15 K, x1 = 0.3033 | – | 33.15
308.15 K, x1 = 0.3999 | 1070.5 | –
308.15 K, x1 = 0.4003 | – | 35.37
308.15 K, x1 = 0.5 | 1077.4 | –
308.15 K, x1 = 0.5032 | – | 36.69
308.15 K, x1 = 0.5913 | – | 37.46
308.15 K, x1 = 0.5996 | 1084.2 | –
308.15 K, x1 = 0.7001 | 1085.4 | –
308.15 K, x1 = 0.7064 | – | 37.66
308.15 K, x1 = 0.791 | – | 38.03
308.15 K, x1 = 0.8002 | 1087.2 | –
308.15 K, x1 = 0.8938 | – | 39.37
308.15 K, x1 = 0.8988 | 1089 | –
308.15 K, x1 = 1 | 1104.2 | 42.37
318.15 K, x1 = 0.0118 | – | 21.91
318.15 K, x1 = 0.0364 | – | 23.48
318.15 K, x1 = 0.0527 | – | 24.57
318.15 K, x1 = 0.0711 | – | 25.49
318.15 K, x1 = 0.0907 | – | 26.91
318.15 K, x1 = 0.0998 | 953.2 | –
318.15 K, x1 = 0.1085 | – | 27.8
318.15 K, x1 = 0.1968 | 1014.3 | –
318.15 K, x1 = 0.2003 | – | 29.96
318.15 K, x1 = 0.3 | 1051.9 | –
318.15 K, x1 = 0.302 | – | 32.56
318.15 K, x1 = 0.3999 | 1066.8 | –
318.15 K, x1 = 0.4072 | – | 35.2
318.15 K, x1 = 0.5 | 1074.7 | –
318.15 K, x1 = 0.5096 | – | 36.52
318.15 K, x1 = 0.5996 | 1077.7 | –
318.15 K, x1 = 0.6103 | – | 36.74
318.15 K, x1 = 0.7001 | 1078 | –
318.15 K, x1 = 0.7054 | – | 36.95
318.15 K, x1 = 0.8002 | 1078.9 | –
318.15 K, x1 = 0.8108 | – | 37.31
318.15 K, x1 = 0.8845 | – | 38.3
318.15 K, x1 = 0.8988 | 1079.9 | –
318.15 K, x1 = 1 | 1097.7 | 42.01

Source: the NIST ThermoML archive (doi:10.1016/j.jct.2013.04.015)
